Measured values from PubChem BioAssay (NCI).
Where “and” joins values, the source holds several entries; their conditions need not be identical. Identical values can stand only once.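 Dose response: 5 concentrations. Exposure: 48 h. Format: 96-well plates. Endpoint: linear interpolation; highest concentration if not reached. Abbreviation: GI50, concentration required for 50% inhibition of growth. TGI: concentration producing complete growth inhibition.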

Columns and labels:
Test in all cases: NCI anticancer screen, dose series, 48 h
EKVX NSCLC = test system: EKVX NSCLC
HOP-92 NSCLC = test system: HOP-92 NSCLC
LOX IMVI melanoma = test system: LOX IMVI melanoma
MDA-MB-435 = test system: MDA-MB-435
NCI-H460 lung = test system: NCI-H460 lung
NCI/ADR-RES ovarian = test system: NCI/ADR-RES ovarian
OVCAR-8 ovarian = test system: OVCAR-8 ovarian
SK-OV-3 ovarian = test system: SK-OV-3 ovarian
SNB-19 CNS = test system: SNB-19 CNS
UACC-257 melanoma = test system: UACC-257 melanoma

SMILES	GI50 (EKVX NSCLC)	TGI (EKVX NSCLC)	GI50 (HOP-92 NSCLC)	TGI (HOP-92 NSCLC)	GI50 (LOX IMVI melanoma)	TGI (LOX IMVI melanoma)	GI50 (MDA-MB-435)	TGI (MDA-MB-435)	GI50 (NCI-H460 lung)	TGI (NCI-H460 lung)	GI50 (NCI/ADR-RES ovarian)	TGI (NCI/ADR-RES ovarian) [µM]	GI50 (OVCAR-8 ovarian)	TGI (OVCAR-8 ovarian) [µM]	GI50 (SK-OV-3 ovarian)	TGI (SK-OV-3 ovarian) [µM]	GI50 (SNB-19 CNS)	TGI (SNB-19 CNS) [µM]	GI50 (UACC-257 melanoma)	TGI (UACC-257 melanoma)
CCc1n(Cc2ccc3ccccc3c2)cc[n+]1Cc1ccc2ccccc2c1	0.766 µM	5.55 µM	0.338 µM	1.77 µM	0.649 µM	1.96 µM	0.424 µM	1.57 µM	0.724 µM	2.15 µM	19.2 µM	62.4	0.76 µM	3.13	1.46 µM	5.73	0.492 µM	1.82	0.554 µM	3.27 µM
C(#Cc1ccccc1C#Cc1cnccn1)c1cnccn1	35.3 µM	> 100 µM	79.5 µM	> 100 µM	17.3 µM	53.4 µM	18.5 µM	51.8 µM	18.3 µM	> 71.9 µM	23.2 µM	> 75.8	38.2 µM	> 72.6	56 µM	> 100	> 100 µM	> 100	22.7 µM	> 58.6 µM
CN(C)Cc1c[nH]c2nc[nH]c(=O)c12		> 100 µM		85.8 µM		40.9 µM		> 100 µM		61 µM		> 100		> 100		> 100		> 100		52 µM
Nc1ccccc1SC(CC(=O)c1ccccc1)c1c(Cl)cccc1Cl (stereo not given)			6.11 µM	21.5 µM	1.59 µM	3.2 µM	2.87 µM	10.7 µM	4.59 µM	17.6 µM	3.72 µM	28.5	2.63 µM	9.61	12.1 µM	28.8	10.5 µM	22.9	14.6 µM	28.6 µM
COc1cc(/C=C/C(=O)c2cccc(-n3cc(-c4ccccc4)[nH]c3=O)c2)ccc1O	6.38 µM	36.3 µM	1.99 µM	6.68 µM	2.5 µM	9.16 µM	2.58 µM	8.91 µM	3.01 µM	8.68 µM	3.5 µM	> 43	3.35 µM	17.8	4.02 µM	35.5	3.07 µM	11	4.88 µM	17.1 µM
Cc1ccc(-c2csc3ncnc(Nc4cccc(O)c4)c23)cc1	37.8 µM	98 µM	14.3 µM	35.9 µM	25.9 µM	62 µM	16.7 µM	33.6 µM	29.2 µM	76.3 µM	24.7 µM	60.3	32.3 µM	> 100	38.6 µM	> 100	50.7 µM	> 100	17.5 µM	38.9 µM
Cc1cc(N)c2cc(NC(=O)/C=C\c3ccccc3Cl)ccc2n1	1.53 µM	3.1 µM	1.56 µM	3.27 µM	0.212 µM	0.447 µM	1.15 µM	2.52 µM	1.19 µM	2.7 µM	> 24.2 µM	> 100	1.61 µM	3.12	1.85 µM	3.27	1.56 µM	2.95	1.76 µM	3.23 µM
CC1=C(C(=O)Nc2cc(F)c(F)cc2F)C(c2ccc(N(C)C)cc2)C(C(=O)Nc2cc(F)c(F)cc2F)=C(C)N1		75.6 µM		15.2 µM		> 100 µM	41.7 µM	> 100 µM		> 100 µM	41.2 µM	> 100		> 100		> 100		> 100		> 82.8 µM
Cc1ccc(S(=O)(=O)NC(=O)Nc2ncn[nH]2)cc1		> 100 µM		> 100 µM				> 100 µM		> 100 µM		> 100		> 100		> 100		> 100		> 100 µM
CCCCCCCCCCCCNCCCc1ccccc1			1.34 µM	2.83 µM	1.77 µM	3.24 µM	1.73 µM	3.17 µM	1.83 µM	3.4 µM	1.77 µM	3.5	1.75 µM	3.39	2.37 µM	5.37	2.07 µM	5.35	1.74 µM	3.18 µM
CC(=O)OC1CCC2(C)C(=CCC3C2CCC2(C)C3CC3OC4(CCC(C)CN4)C(C)C32)C1 (stereo not given)		> 100 µM		> 100 µM		> 100 µM		> 100 µM		> 100 µM		> 100		> 100		> 100		> 100		> 100 µM
CCOC(=O)CCC(NC(=O)c1ccc(Oc2nc3cc(N)cc(N)c3nc2-c2ccccc2)cc1)C(=O)OCC (stereo not given)	62 µM	> 100 µM	30.1 µM	> 100 µM	11.9 µM	26.1 µM	30.2 µM	> 100 µM	96.2 µM	> 100 µM	27.5 µM	> 100	38.2 µM	> 100	27.9 µM	97.7	31.6 µM	> 100	26.7 µM	55.1 µM
CC(=O)OC1C(C)OC(Oc2c(-c3ccc(O)cc3)oc3cc(O)cc(O)c3c2=O)C(O)C1OC(C)=O (stereo not given)	54.2 µM	> 100 µM	13.2 µM	54.3 µM	21 µM	50.2 µM	27.2 µM	> 75.4 µM	32.5 µM	> 100 µM	> 100 µM	> 100	29 µM	> 84.9	56.4 µM	> 100	36.2 µM	> 100	27.6 µM	> 79.9 µM
CC(C)OC(=O)NNc1c(Cl)cc(Cl)cc1Cl		> 100 µM		> 100 µM		> 100 µM		> 100 µM		> 100 µM		> 100		> 100		> 100		> 100		> 100 µM
CCN(CC)CCNc1ccc2nc(C)n3c4ccc(OC)cc4c(=O)c1c23		13.9 µM		20.7 µM		2.55 µM		27.1 µM		2.42 µM		15.1		9.25		19.5		13.7		22.3 µM
CCn1cnc(C[C@H](NC(=O)[C@@H](NC(=O)Nc2cc(C(F)(F)F)cc(C(F)(F)F)c2)C(C)(C)C)C(=O)OC)c1			> 10 µM	> 10 µM	> 10 µM	> 10 µM	> 10 µM	> 10 µM	> 10 µM	> 10 µM	> 10 µM	> 10	> 10 µM	> 10	> 10 µM	> 10	> 10 µM	> 10	> 10 µM	> 10 µM
C=CCC(NCc1ccccc1)c1cn(C(=O)OCC)c2ccccc12 (stereo not given)	20.7 µM	55.4 µM	13.8 µM	40.7 µM	17 µM	30.9 µM	20.2 µM	45.9 µM	> 100 µM	> 100 µM	21.4 µM	52.1	24.1 µM	61.1	44.7 µM	> 100	64.3 µM	> 100	23.8 µM	49.5 µM
CCOC(=O)c1nc2sc(Cl)cn2c1/C=N/N=C(N)N	26.1 µM	61.6 µM	20 µM	40.8 µM	25.3 µM	> 54.6 µM	25.3 µM	> 58.2 µM	28.2 µM	> 59.6 µM	39 µM	> 83.4	26.9 µM	> 53.8	44.3 µM	98.3	30 µM	> 100	35.8 µM	> 86 µM
O=C1C=CC(=O)N1c1ccc2ccccc2c1	17.9 µM	39.6 µM	7.59 µM	22.2 µM	16.4 µM	31.3 µM	16.9 µM	32.2 µM	17.5 µM	37.9 µM	21.5 µM	55.7	19.2 µM	42.3	27.4 µM	78.5	38.4 µM	> 100	10.5 µM	22.7 µM
C=CC(=O)N1CCN(c2nc(OC[C@@H]3CCCN3C)nc3c(F)c(-c4nc(N)cc(C)c4C(F)(F)F)c(Cl)cc23)[C@@H](C)C1	1.98 µM	4.8 µM	1.75 µM	3.71 µM	1.6 µM	3.02 µM	2.09 µM	4.65 µM	2.29 µM	5.39 µM	12.8 µM	27.8	1.64 µM	3.09	2.62 µM	6.42	3.44 µM	12.8	1.57 µM	3 µM
O=C(Nc1ccc(Br)cc1)c1cc(Br)ccc1O	0.788 µM and 0.75 µM	36.6 µM and > 20.1 µM	0.218 µM and 0.332 µM	0.698 µM and 2.88 µM	0.549 µM and 1.09 µM	4.46 µM and 4.42 µM	0.43 µM and 1.38 µM	3.23 µM and 5.66 µM	0.389 µM and 0.617 µM	4.96 µM and 10.7 µM	0.523 µM and 1.16 µM	8.28	0.554 µM and 2.65 µM	> 82.8	0.747 µM and 1.8 µM		0.339 µM and 1 µM	> 93.1	0.455 µM and 2.73 µM	3.58 µM and 8.43 µM
O=C1/C(=C/c2ccc([N+](=O)[O-])s2)Oc2ccc(Br)cc21			0.21 µM	0.606 µM	0.209 µM	0.486 µM	0.397 µM	1.78 µM	0.396 µM	1.63 µM	0.497 µM	4.91	0.37 µM	> 100	2.09 µM	5.04	0.42 µM	2.13	0.572 µM	3.96 µM
O=C1c2c[n+](Cc3ccccc3)ccc2-c2nc3ccccc3c3ccnc1c23	1.28 µM	4.79 µM	0.548 µM	1.9 µM	0.583 µM	2.02 µM	0.434 µM	0.972 µM	0.0673 µM	0.499 µM	7.3 µM	33.3			0.568 µM	2.56	0.389 µM	2.55	0.865 µM	2.33 µM
COc1cccc(C2=C(c3cn(C)c4c(C)cccc34)C(=O)NC2=O)c1			> 25 µM	> 25 µM	> 25 µM	> 25 µM	18.2 µM	> 25 µM	> 25 µM	> 25 µM	> 21.4 µM	> 25	> 25 µM	> 25	> 25 µM	> 25	> 25 µM	> 25	> 25 µM	> 25 µM
Cc1nc2sc(C(=O)Nc3cccc4c3OCCO4)c(N)c2cc1C(C)O (stereo not given)	> 100 µM	> 100 µM	5.52 µM	> 100 µM	5.26 µM	> 100 µM	0.454 µM	3.54 µM	3.58 µM	> 100 µM	3.28 µM	> 100	6.48 µM	> 100	5.75 µM	> 100	6.8 µM	> 100		
O=C(Nc1cccc2[nH]c(C(F)(F)F)nc12)c1ccc(Br)cc1F			1.38 µM	4.1 µM	3.78 µM	12.5 µM	3.33 µM	12.1 µM	3.45 µM	12.4 µM	3.35 µM	12.2	3.14 µM	15.6	2.64 µM	9.27	3.79 µM	14.6	2.35 µM	6.67 µM
O=[N+]([O-])c1cc2c(ccc3ccccc32)o1			0.257 µM	0.774 µM	0.166 µM	0.487 µM	0.158 µM	0.35 µM	0.276 µM	1.06 µM	0.635 µM	5.96	0.55 µM	5.83	0.571 µM	6.25	0.966 µM	> 35.4	0.188 µM	0.417 µM
O=NN(CC(=O)NNc1ccccc1)CC(=O)NNc1ccccc1			> 100 µM	> 100 µM	1.22 µM	> 100 µM	> 20.1 µM	> 100 µM	4.34 µM	> 100 µM	14.2 µM	> 100	9.88 µM	> 100	> 100 µM	> 100	> 100 µM	> 100	22.4 µM	> 100 µM
